Where two headings read alike, the source gives them in different places.
Legend:
sheath blight fungi = details: 500 ppm spray, rice plants at 5-leaf stage, 6 days in humid room
[1] = test system: phytophthora disease pathogens; details: in vivo
[2] = test system: brown blotch disease pathogens; details: 500 ppm spray, cucumbers at 2-leaf stage, 8 days in humid room
Experimental: (§1) 9 parts by mass of a subagent of a formulation (xylene:DMF:Solpol 3005X (Toho Chemical Industry Co., Ltd.)=4:4:1) was mixed with 1 part by mass of dexmedetomidine (Wako) to prepare a 10% emulsion. A diluted solution of the 10% emulsion with a predetermined concentration was prepared by using a spreading agent, Grameen S (Toyo Green Co., Ltd.), diluted 10000-fold with water. Sample crops were individually sprayed with a sufficient amount of the diluted chemical solution by using a spray gun.
(§2) Preventive value=100−(damage in treated group/damage in untreated group)×100 (N)
Test Method for Brown Blotch Disease Pathogen
Cucumbers at the 2-leaf stage were sprayed with the chemical solution and inoculated with a spray of a spore suspension of brown blotch disease pathogens, and then placed in a humid room for 8 days. The area of lesions on leaves was measured, and the preventive value was calculated according to formula (N).

[3] = test system: Nilaparvata lugens (Three-instar Larva); assay: whole plant or invertebrate; details: in Oryza sativa, 144 h
Experimental: as §1
(§3) Test Method for Nilaparvata lugens (Third-Instar Larva) and Nephotettix cincticeps (Third-Instar Larvae)
(§4) After the sample crops were sprayed with the chemical solution, they were air-dried, and 10 test insects were released. To prevent the escape of the test insects, plants were covered with cups and nylon gauze. The mortality rate was calculated from the number of surviving insects after 6 days, and the corrected mortality rate was calculated from the following formula:
(§5) Corrected mortality rate (%)=[(survival rate of untreated group−survival rate of treated group)/survival rate of untreated group]×100

[4] = test system: Nephotettix cincticeps (Three-instar Larva); assay: whole plant or invertebrate; details: in Oryza sativa, 144 h
Experimental: as §1, §3, §4, §5

[5] = test system: Bemisia tabaci (Adult Insect); assay: whole plant or invertebrate; details: in Brassica oleracea, 48 h
Experimental: as §1
(§6) Test Method for Bemisia tabaci (Adult) and Frankliniella Occidentalis (First-Instar Larva)
(§7) After the sample crops were sprayed with the chemical solution, they were air-dried, and then the leaves were cut and stored in cups. While test insects were released, the number of insects released was counted, and the cups were covered with a lid. The mortality rate was calculated from the number of surviving insects after 2 days for Bemisia tabaci and after 5 days for Frankliniella occidentalis. Their corrected mortality rate was calculated from the following formula:
as §5

[6] = test system: Frankliniella occidentalis (First-instar Larva); assay: whole plant or invertebrate; details: in Brassica oleracea, 120 h
Experimental: as §1, §6, §7, §5

blast disease pathogens = details: 500 ppm spray, rice seedlings at 2.5-leaf stage, 8 days in humid room
Experimental: as §1
Test Method for Blast Disease Pathogen
Seedlings at the 2.5-leaf stage were sprayed with the chemical solution, and placed in a humid room for 8 days with blast disease pathogens, followed by measuring the area of lesions. The preventive value was calculated from the ratio to the untreated group according to the following formula (N):
as §2

[7] = read-out: Insect Mortality Rate
[8] = read-out: Insect Mortality Rate (Corrected)

For `Cc1cccc([C@H](C)c2cnc[nH]2)c1C` [Chemical Agent, dexmedetomidine], the “Sheath Blight Disease Lesion Elongation” value (sheath blight fungi) was 3 mm, the “Sheath Blight Disease Preventive Value” (sheath blight fungi) was 98 and the “Phytophthora Expansion Area” value [1] was 15%. For the same compound, the “Phytophthora Preventive Value” [1] was 84, the “Brown Blotch Disease Expansion Area” value [2] was 2% and the “Brown Blotch Disease Preventive Value” [2] was 86. For the same compound, the mortality at 100 ppm [3, 7] was 100%, the mortality at 500 ppm [3, 7] was 100% and the mortality at 100 ppm [3, 8] was 100%. For the same compound, the mortality at 500 ppm [3, 8] was 100%, the mortality at 100 ppm [4, 7] was 100% and the mortality at 500 ppm [4, 7] was 100%. It also gave a mortality at 100 ppm [4, 8] of 100%, a mortality at 500 ppm [4, 8] of 100% and a mortality at 100 ppm [5, 7] of 100%. It also gave a mortality at 500 ppm [5, 7] of 100%, a mortality at 100 ppm [5, 8] of 100% and a mortality at 500 ppm [5, 8] of 100%. For the same compound, the mortality at 100 ppm [6, 7] was 100%, the mortality at 500 ppm [6, 7] was 100% and the mortality at 100 ppm [6, 8] was 100%. The mortality at 500 ppm [6, 8] was 100%, the “Blast Disease Expansion Area Percentage” value (blast disease pathogens) was 0% and the “Blast Disease Preventive Value” (blast disease pathogens) was 100.

Source: US20240268385A1, “PEST CONTROL COMPOSITION” (DAIKIN INDUSTRIES, LTD., priority 2021, published 2024)
